{"source": "patent US6825350B2", "about": "“Sulfonamide and sulfamide substituted imidazoquinolines and methods for the treatment of periodontal disease using these and other immune response modifiers” (3M Innovative Properties Company, priority 1999, dated 2004)", "key": {"[1]": {"tested_on": "interferon (α)", "assay": "Cytokine induction in human cells: interferon (α) by ELISA", "type": "cell-based", "conditions": "Homo sapiens, PBMC, human PBMCs, 18 to 24 hours incubation, ELISA of culture supernatant; read-out: Lowest Effective Concentration (μM) Interferon"}, "[2]": {"tested_on": "tumor necrosis factor (α)", "assay": "Cytokine induction in human cells: tumor necrosis factor (α) by ELISA", "type": "cell-based", "conditions": "Homo sapiens, PBMC, human PBMCs, 18 to 24 hours incubation, ELISA of culture supernatant; read-out: Lowest Effective Concentration (μM) Tumor Necrosis Factor"}}, "data": [{"smiles": "CCCCc1nc2c(N)nc3ccccc3c2n1CCCCNS(=O)(=O)c1cccc2c(N(C)C)cccc12", "note": "[Example 1, N^1-[4-(4-Amino-2-butyl-1H-imidazo[4,5-c]quinolin-1-yl)butyl]-5-(dimethylamino)-1-naphthalenesulfonamide]", "values": [{"measurement": "minimal effective concentration", "setting": "[1]", "value": 0.12, "unit": "µM"}, {"measurement": "melting point", "value": "223 to 224", "unit": "°C"}, {"measurement": "minimal effective concentration", "setting": "[2]", "value": 3.33, "unit": "µM"}]}, {"smiles": "CN(C)c1cccc2c(S(=O)(=O)NCCCCn3cnc4c(N)nc5ccccc5c43)cccc12", "note": "[Example 2, N^1-[4-(4-Amino-1H-imidazo[4,5-c]quinolin-1-yl)butyl]-5-(dimethylamino)-1-naphthalenesulfonamide]", "values": [{"measurement": "minimal effective concentration", "setting": "[1]", "value": "> 30", "unit": "µM"}, {"measurement": "melting point", "value": "200 to 201", "unit": "°C"}, {"measurement": "minimal effective concentration", "setting": "[2]", "value": "> 30", "unit": "µM"}]}, {"smiles": "CCCCc1nc2c(N)nc3ccccc3c2n1CCCCNS(=O)(=O)c1cccc2cnccc12", "note": "[Example 11, N^5-[4-(4-Amino-2-butyl-1H-imidazo[4,5-c]quinolin-1-yl)butyl]-5-isoquinolinesulfonamide]", "values": [{"measurement": "minimal effective concentration", "setting": "[1]", "value": 0.01, "unit": "µM"}, {"measurement": "melting point", "value": "96 °C (dec.)"}, {"measurement": "minimal effective concentration", "setting": "[2]", "value": 1.11, "unit": "µM"}]}]}
